Experiments:
Format in all cases: in vivo
[1] = system: barnyardgrass (Echinochloa crus-galli); assay: Test B flooded paddy; settings: 250 g ai/ha, Flood, 13 to 15 days, scale 0 (no effect) to 100 (complete control)
From the text: (§1) At time of treatment, test pots were flooded to 3 cm above the soil surface, treated by application of test compounds directly to the paddy water, and then maintained at that water depth for the duration of the test. Treated plants and controls were maintained in a greenhouse for 13 to 15 days, after which time all species were compared to controls and visually evaluated. […] A dash (-) response means no test result.

[2] = system: ducksalad (Heteranthera limosa); assay: Test B flooded paddy; settings: 250 g ai/ha, Flood, 13 to 15 days, scale 0 (no effect) to 100 (complete control)
From the text: as §1

rice (Oryza sativa) = assay: Test B flooded paddy; settings: 250 g ai/ha, Flood, 13 to 15 days, scale 0 (no effect) to 100 (complete control)
From the text: as §1

[3] = system: sedge, umbrella (small-flower umbrella sedge, Cyperus difformis); assay: Test B flooded paddy; settings: 250 g ai/ha, Flood, 13 to 15 days, scale 0 (no effect) to 100 (complete control)
From the text: as §1

[4] = system: Italian ryegrass (Lolium multiflorum); assay: Test A preemergence; settings: 0 to 100 scale (0 no effect, 100 complete control)
From the text: (§2) Seeds of plant species selected from barnyardgrass (Echinochloa crus-galli), kochia (Kochia scoparia), ragweed (common ragweed, Ambrosia elatior), Italian ryegrass (Lolium multiflorum), large (Lg) crabgrass (Digitaria sanguinalis), giant foxtail (Setaria faberii), morningglory (Ipomoea spp.), pigweed (Amaranthus retroflexus), velvetleaf (Abutilon theophrasti), wheat (Triticum aestivum), and corn (Zea mays) were planted into a blend of loam soil and sand and treated preemergence with a directed soil spray using test chemicals formulated in a non-phytotoxic solvent mixture which included a surfactant.
(§3) At the same time, plants selected from these crop and weed species and also blackgrass (Alopecurus myosuroides), and galium (catchweed bedstraw, Galium aparine) were planted in pots containing the same blend of loam soil and sand and treated with postemergence applications of test chemicals formulated in the same manner. Plants ranged in height from 2 to 10 cm and were in the one- to two-leaf stage for the postemergence treatment. Treated plants and untreated controls were maintained in a greenhouse for approximately 10 days, after which time all treated plants were compared to untreated controls and visually evaluated for injury. Plant response ratings, summarized in Table A, are based on a 0 to 100 scale where 0 is no effect and 100 is complete control. A dash (-) response means no test result.

[5] = system: barnyardgrass (Echinochloa crus-galli); assay: Test A preemergence; settings: for Barnyardgrass plant response rating: 0 to 100 scale (0 no effect, 100 complete control); for Plant response rating, Barnyardgrass: 0 to 100 scale
From the text: as §2, §3

[6] = system: giant foxtail (Setaria faberii); assay: Test A preemergence; settings: 0 to 100 scale (0 no effect, 100 complete control)
From the text: as §2, §3

kochia (Kochia scoparia) [7] = assay: Test A preemergence; settings: 0 to 100 scale (0 no effect, 100 complete control)
From the text: as §2, §3

[8] = system: pigweed (Amaranthus retroflexus); assay: Test A preemergence; settings: 0 to 100 scale (0 no effect, 100 complete control)
From the text: as §2, §3

[9] = system: ragweed (common ragweed, Ambrosia elatior); assay: Test A preemergence; settings: 0 to 100 scale (0 no effect, 100 complete control)
From the text: as §2, §3

[10] = system: Italian ryegrass (Lolium multiflorum); assay: Test A postemergence; settings: 0 to 100 scale
From the text: as §2, §3

[11] = system: barnyardgrass (Echinochloa crus-galli); assay: Test A postemergence; settings: 0 to 100 scale
From the text: as §2, §3

[12] = system: blackgrass (Alopecurus myosuroides); assay: Test A postemergence; settings: 0 to 100 scale
From the text: as §2, §3

corn (Zea mays) = assay: Test A postemergence; settings: 0 to 100 scale
From the text: as §2, §3

[13] = system: galium (catchweed bedstraw, Galium aparine); assay: Test A postemergence; settings: 0 to 100 scale
From the text: as §2, §3

[14] = system: giant foxtail (Setaria faberii); assay: Test A postemergence; settings: 0 to 100 scale
From the text: as §2, §3

kochia (Kochia scoparia) [15] = assay: Test A postemergence; settings: 0 to 100 scale
From the text: as §2, §3

[16] = system: pigweed (Amaranthus retroflexus); assay: Test A postemergence; settings: 0 to 100 scale
From the text: as §2, §3

[17] = system: ragweed (common ragweed, Ambrosia elatior); assay: Test A postemergence; settings: 0 to 100 scale
From the text: as §2, §3

[18] = system: wheat (Triticum aestivum); assay: Test A postemergence; settings: 0 to 100 scale
From the text: as §2, §3

Structure (SMILES) | Plant response rating, Barnyardgrass [1] | Plant response rating, Ducksalad [2] | Plant response rating, Rice (rice (Oryza sativa)) | Plant response rating, Sedge, Umbrella [3] | Ryegrass, Italian plant response rating ([4]; 31 g ai/ha) | Ryegrass, Italian plant response rating ([4]; 125 g ai/ha) | Barnyardgrass plant response rating ([5]; 31 g ai/ha) | Foxtail, Giant plant response rating ([6]; 31 g ai/ha) | Foxtail, Giant plant response rating ([6]; 125 g ai/ha) | Kochia plant response rating (kochia (Kochia scoparia) [7]; 31 g ai/ha) | Kochia plant response rating (kochia (Kochia scoparia) [7]; 125 g ai/ha) | Pigweed plant response rating ([8]; 31 g ai/ha) | Pigweed plant response rating ([8]; 125 g ai/ha) | Ragweed plant response rating ([9]; 31 g ai/ha) | Ragweed plant response rating ([9]; 125 g ai/ha) | Plant response rating, Ryegrass, Italian ([10]; 31 g ai/ha) | Plant response rating, Ryegrass, Italian ([10]; 125 g ai/ha) | Plant response rating, Barnyardgrass ([11]; 31 g ai/ha) | Plant response rating, Barnyardgrass ([11]; 125 g ai/ha) | Plant response rating, Blackgrass ([12]; 31 g ai/ha) | other results
N#Cc1cccc(Oc2ncc(Cl)cn2)c1Oc1ccc(C(F)(F)F)nn1 [Compound 26] | 0 | 70 | 0 | 60 | 0 | 0 | 0 | 20 | 60 | 20 | 30 | 90 | 100 | 0 | 20 | 0 | 0 | 0 | 20 | 0 | Plant response rating, Barnyardgrass ([5]; 125 g ai/ha): 20; Plant response rating, Blackgrass ([12]; 125 g ai/ha): 30; Plant response rating, Corn (corn (Zea mays); 31 g ai/ha): 0; Plant response rating, Corn (corn (Zea mays); 125 g ai/ha): 20; Plant response rating, Galium ([13]; 31 g ai/ha): 30; Plant response rating, Galium ([13]; 125 g ai/ha): 50; Plant response rating, Foxtail, Giant ([14]; 31 g ai/ha): 10; Plant response rating, Foxtail, Giant ([14]; 125 g ai/ha): 30; Plant response rating, Kochia (kochia (Kochia scoparia) [15]; 31 g ai/ha): 40; Plant response rating, Kochia (kochia (Kochia scoparia) [15]; 125 g ai/ha): 60; Plant response rating, Pigweed ([16]; 31 g ai/ha): 50; Plant response rating, Pigweed ([16]; 125 g ai/ha): 80; Plant response rating, Ragweed ([17]; 31 g ai/ha): 30; Plant response rating, Ragweed ([17]; 125 g ai/ha): 30; Plant response rating, Wheat ([18]; 31 g ai/ha): 0; Plant response rating, Wheat ([18]; 125 g ai/ha): 10
Fc1ccc(F)c(Oc2ncc(C(F)(F)F)cn2)c1Oc1ncc(C(F)(F)F)cn1 [Compound 30] | 0 | 0 | 0 | 0 | 0 | 0 | 0 | 10 | 50 | 10 | 20 | 90 | 100 | 0 | 0 | 0 | 0 | 0 | 0 | 0 | Plant response rating, Barnyardgrass ([5]; 125 g ai/ha): 10; Plant response rating, Blackgrass ([12]; 125 g ai/ha): 30; Plant response rating, Corn (corn (Zea mays); 31 g ai/ha): 0; Plant response rating, Corn (corn (Zea mays); 125 g ai/ha): 0; Plant response rating, Galium ([13]; 31 g ai/ha): 60; Plant response rating, Galium ([13]; 125 g ai/ha): 70; Plant response rating, Foxtail, Giant ([14]; 31 g ai/ha): 0; Plant response rating, Foxtail, Giant ([14]; 125 g ai/ha): 10; Plant response rating, Kochia (kochia (Kochia scoparia) [15]; 31 g ai/ha): 0; Plant response rating, Kochia (kochia (Kochia scoparia) [15]; 125 g ai/ha): 0; Plant response rating, Pigweed ([16]; 31 g ai/ha): 60; Plant response rating, Pigweed ([16]; 125 g ai/ha): 70; Plant response rating, Ragweed ([17]; 31 g ai/ha): 0; Plant response rating, Ragweed ([17]; 125 g ai/ha): 0; Plant response rating, Wheat ([18]; 31 g ai/ha): 0; Plant response rating, Wheat ([18]; 125 g ai/ha): 0
N#Cc1cccc(Oc2ncc(Cl)cn2)c1Oc1ccc(OC(F)(F)F)cc1 [Compound 33] | 0 | 0 | 0 | 0 | 0 | 0 | 0 | 10 | 40 | 0 | 0 | 0 | 30 | 0 | 0 | 0 | 10 | 0 | 10 | 0 | Plant response rating, Barnyardgrass ([5]; 125 g ai/ha): 10; Plant response rating, Blackgrass ([12]; 125 g ai/ha): 10; Plant response rating, Corn (corn (Zea mays); 31 g ai/ha): 0; Plant response rating, Corn (corn (Zea mays); 125 g ai/ha): 10; Plant response rating, Galium ([13]; 31 g ai/ha): 10; Plant response rating, Galium ([13]; 125 g ai/ha): 30; Plant response rating, Foxtail, Giant ([14]; 31 g ai/ha): 10; Plant response rating, Foxtail, Giant ([14]; 125 g ai/ha): 20; Plant response rating, Kochia (kochia (Kochia scoparia) [15]; 31 g ai/ha): 20; Plant response rating, Kochia (kochia (Kochia scoparia) [15]; 125 g ai/ha): 40; Plant response rating, Pigweed ([16]; 31 g ai/ha): 30; Plant response rating, Pigweed ([16]; 125 g ai/ha): 80; Plant response rating, Ragweed ([17]; 31 g ai/ha): 0; Plant response rating, Ragweed ([17]; 125 g ai/ha): 10; Plant response rating, Wheat ([18]; 31 g ai/ha): 0; Plant response rating, Wheat ([18]; 125 g ai/ha): 0
N#Cc1cccc(Oc2ncc(C(F)(F)F)cn2)c1Oc1ncc(C(F)(F)F)cn1 [Compound 35] | 0 | 60 | 40 | 60 | 0 | 10 | 0 | 30 | 90 | 0 | 60 | 100 | 100 | 0 | 10 | 0 | 30 | 0 | 40 | 10 | Plant response rating, Barnyardgrass ([5]; 125 g ai/ha): 50; Plant response rating, Blackgrass ([12]; 125 g ai/ha): 50; Plant response rating, Corn (corn (Zea mays); 31 g ai/ha): 0; Plant response rating, Corn (corn (Zea mays); 125 g ai/ha): 30; Plant response rating, Galium ([13]; 31 g ai/ha): 40; Plant response rating, Galium ([13]; 125 g ai/ha): 70; Plant response rating, Foxtail, Giant ([14]; 31 g ai/ha): 0; Plant response rating, Foxtail, Giant ([14]; 125 g ai/ha): 20; Plant response rating, Kochia (kochia (Kochia scoparia) [15]; 31 g ai/ha): 60; Plant response rating, Kochia (kochia (Kochia scoparia) [15]; 125 g ai/ha): 90; Plant response rating, Pigweed ([16]; 31 g ai/ha): 70; Plant response rating, Pigweed ([16]; 125 g ai/ha): 100; Plant response rating, Ragweed ([17]; 31 g ai/ha): 10; Plant response rating, Ragweed ([17]; 125 g ai/ha): 20; Plant response rating, Wheat ([18]; 31 g ai/ha): 0; Plant response rating, Wheat ([18]; 125 g ai/ha): 0
Fc1ccc(Oc2ccc(C(F)(F)F)cn2)c(Oc2ncc(Cl)cn2)c1 [Compound 45, 5-chloro-2-[5-fluoro-[2-[5-(trifluoromethyl)pyridin-2-yl]oxy]phenoxy]pyrimidine] | 0 | 75 | 0 | 70 | 0 | 0 | 0 | 30 | 100 | 0 | 10 | 0 | 0 | 0 | 10 | 0 | 0 | 0 | 0 | 0 | Barnyardgrass plant response rating ([5]; 125 g ai/ha): 30; Plant response rating, Blackgrass ([12]; 125 g ai/ha): 30; Plant response rating, Corn (corn (Zea mays); 31 g ai/ha): 0; Plant response rating, Corn (corn (Zea mays); 125 g ai/ha): 30; Plant response rating, Galium ([13]; 31 g ai/ha): 60; Plant response rating, Galium ([13]; 125 g ai/ha): 70; Plant response rating, Foxtail, Giant ([14]; 31 g ai/ha): 0; Plant response rating, Foxtail, Giant ([14]; 125 g ai/ha): 0; Plant response rating, Kochia (kochia (Kochia scoparia) [15]; 31 g ai/ha): 20; Plant response rating, Kochia (kochia (Kochia scoparia) [15]; 125 g ai/ha): 80; Plant response rating, Pigweed ([16]; 31 g ai/ha): 20; Plant response rating, Pigweed ([16]; 125 g ai/ha): 20; Plant response rating, Ragweed ([17]; 31 g ai/ha): 0; Plant response rating, Ragweed ([17]; 125 g ai/ha): 20; Plant response rating, Wheat ([18]; 31 g ai/ha): 0; Plant response rating, Wheat ([18]; 125 g ai/ha): 20

Reference: patent publication US20170190671A1, “BIS(ARYL)CATECHOL DERIVATIVES AS HERBICIDES” (E I DU PONT DE NEMOURS AND COMPANY, priority 2014, published 2017)
